The term solubility denotes the concentration that dissolves in the medium under given conditions. Low readings indicate little dissolved substance, high ones much dissolved substance. The pEC50 is the EC50 on a negative log10 scale, so that one unit is a factor of ten.

pEC50: −log10 of the molar value. Values after ≈ are worked out from the molar mass of the structure shown.

Experimental findings from patent US7238213B2, “Cell-based assays employing voltage and calcium dyes” (priority 2001, dated 2007) are described below.

Data set [1] concerns the target T1, GCGR (Homo sapiens, UniProt P47871).
T1 construct: expressed in transfected cells
The data set can be described thus: CNG channel voltage dye assay with quencher dyes, cell line ASC0089 (GCGR). It is filed as cell-based. The settings on record: for Cell response to glucagon in the presence of the quencher dye: ASC0089, HLB30602 5 μM, 1 h at room temperature, FIG. 19; for Effect of quencher on glucagon potency: compared with other quenchers and MDC dye kit, FIG. 21, 22.

Data set [2] concerns the target T2, A2B (Homo sapiens, UniProt P29275).
T2 construct: endogenous in cells
T2 sequence (P29275 1-332): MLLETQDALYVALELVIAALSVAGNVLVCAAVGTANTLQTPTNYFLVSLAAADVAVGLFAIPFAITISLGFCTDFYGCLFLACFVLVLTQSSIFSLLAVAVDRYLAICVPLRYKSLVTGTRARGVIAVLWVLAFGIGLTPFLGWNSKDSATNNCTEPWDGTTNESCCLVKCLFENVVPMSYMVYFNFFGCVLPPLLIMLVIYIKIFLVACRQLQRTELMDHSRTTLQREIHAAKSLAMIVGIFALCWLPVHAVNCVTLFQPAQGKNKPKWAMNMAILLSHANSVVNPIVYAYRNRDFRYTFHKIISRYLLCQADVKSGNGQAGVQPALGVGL
The experiment in a line: CNG channel voltage dye assay with quencher dyes, cell line ASC0097 (A2B). The class given is cell-based. Particulars: FIG. 20.

Data set [3] is described as follows: Solubility in water of dye quenchers. The settings on record: for solubility: water, Solubility in Water.
Data set [4] has as its target T3, DP (Homo sapiens, UniProt Q13258).
T3 construct: expressed in transfected cells; host or cells: cell line ASC0093 (CNG sensor line)
T3 sequence (Q13258 1-359): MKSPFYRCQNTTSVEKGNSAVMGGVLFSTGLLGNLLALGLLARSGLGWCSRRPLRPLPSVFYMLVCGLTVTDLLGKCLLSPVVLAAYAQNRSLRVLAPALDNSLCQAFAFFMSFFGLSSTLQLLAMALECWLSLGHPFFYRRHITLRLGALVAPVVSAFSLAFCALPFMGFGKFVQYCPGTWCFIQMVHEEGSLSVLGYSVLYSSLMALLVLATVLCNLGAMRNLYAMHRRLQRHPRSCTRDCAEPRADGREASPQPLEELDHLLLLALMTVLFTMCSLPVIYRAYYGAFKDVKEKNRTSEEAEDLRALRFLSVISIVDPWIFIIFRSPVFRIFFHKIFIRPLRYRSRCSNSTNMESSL
The experiment in a line: CNG channel voltage dye assay with quencher dyes, cell line ASC0093 (DP). It is filed as cell-based.

T1 sequence (P47871 26-477, species assumed): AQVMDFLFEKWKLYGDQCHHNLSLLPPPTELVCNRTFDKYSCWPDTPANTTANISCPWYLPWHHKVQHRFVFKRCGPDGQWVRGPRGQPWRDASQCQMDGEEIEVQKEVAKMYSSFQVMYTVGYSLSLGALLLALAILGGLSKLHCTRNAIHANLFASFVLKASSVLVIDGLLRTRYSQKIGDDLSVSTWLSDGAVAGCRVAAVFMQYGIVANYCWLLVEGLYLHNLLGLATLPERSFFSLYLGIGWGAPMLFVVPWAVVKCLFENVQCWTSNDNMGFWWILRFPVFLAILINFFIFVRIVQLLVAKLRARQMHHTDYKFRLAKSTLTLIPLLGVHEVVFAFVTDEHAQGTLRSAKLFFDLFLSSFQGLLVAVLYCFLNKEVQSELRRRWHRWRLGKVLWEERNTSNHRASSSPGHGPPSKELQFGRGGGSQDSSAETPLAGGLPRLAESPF

As for `Cc1cc(-c2ccc(/N=N/c3c(S(=O)(=O)O)cc4cc(S(=O)(=O)O)cc(N)c4c3O)c(C)c2)ccc1/N=N/c1c(S(=O)(=O)O)cc2cc(S(=O)(=O)O)cc(N)c2c1O` [HLB30702 (Trypan Blue), Trypan Blue], the “Interference of quencher with response to glucagon stimulation” value in data set [1] (FIG. 21) is given as “interfered”. The “Suitability of quencher for assay of adenosine receptor A2B responses to NECA” value in data set [2] was “suitable”. Moreover, the “Solubility in Water” value in data set [3] was more than 20 mg/mL.

As for Direct Violet 51, in data set [3], the “Solubility in Water” value came out at 20 mg/mL.

For `O=S(=O)([O-])c1cc(O)c2c(/N=N/c3ccc(Nc4ccccc4)c4c(S(=O)(=O)[O-])cccc34)cc(S(=O)(=O)[O-])cc2c1.[Na+].[Na+].[Na+]` [Acid Blue 92], in data set [3], the “Solubility in Water” value came to 40 mg/mL.

For `O=c1c(Br)cc2c(-c3ccccc3S(=O)(=O)O)c3cc(Br)c(O)c(O)c3oc-2c1O` [Bromopyrogallol Red], the concentration in solution in data set [3] (solubility) came to 5 mg/mL (≈ 8.96 mM).

On to `O=S(=O)([O-])c1cc(O)c(N=Nc2c(O)ccc3ccccc23)c2ccccc12.[Na+]` [Palatine Chrome Black 6BN (Calcon)], for which the “Solubility in Water” value in data set [3] was 30 mg/mL.

As for `CCN(CC)c1ccc(C(=C2C=CC(=[N+](CC)Cc3cccc(S(=O)(=O)[O-])c3)C=C2)c2ccc(N(CC)Cc3cccc(S(=O)(=O)[O-])c3)cc2)cc1.[Na+]` [Acid Violet 17], the “Cell response to glucagon in the presence of the quencher dye” value in data set [1] is reported as “abolished”. The “Solubility in Water” value in data set [3] was 30 mg/mL.

Take `CC1=CC(=C(c2ccc(N)c(C)c2)c2ccc(N)c(C)c2)C=CC1=N.Cl` [New Fuchsin]: in data set [3], the “Solubility in Water” value came to 20 mg/mL.

For `CC(=O)Nc1ccc(S(=O)(=O)[O-])c2cc(S(=O)(=O)[O-])c(N=Nc3ccc(N=Nc4ccc(S(=O)(=O)[O-])cc4)c4ccc(S(=O)(=O)[O-])cc34)c(O)c12.[Na+].[Na+].[Na+].[Na+]` [Brilliant Black BN], the “Solubility in Water” value in data set [3] was found to be 30 mg/mL.

Consider `CCN(CC)c1ccc2nc3ccc(N)cc3[n+](-c3ccccc3)c2c1.[Cl-]` [Methylene Violet 3Rax], for which the “Solubility in Water” value in data set [3] is 10 mg/mL.

Consider `Cc1cc(-c2ccc(/N=N/c3c(S(=O)(=O)O)cc4cc(S(=O)(=O)O)cc(N)c4c3O)c(C)c2)ccc1/N=N/c1c(S(=O)(=O)O)cc2cc(S(=O)(=O)O)cc(N)c2c1O` [Trypan Blue (Fluka), Trypan Blue], for which, in data set [1] (FIG. 21), the “Effect of quencher on maximal responses to glucagon” value is on record as “did not inhibit maximal responses” and the “Interference of quencher with response to glucagon stimulation” value was “interfered”. Besides, the “Effect of quencher on glucagon potency” value in data set [1] (listed as Trypan blue) is recorded as “reduced glucagon potency by about one order”. Further, the “Effect of quencher on glucagon potency” value in data set [1] (listed as trypan blue) is reported as “significantly reduced glucagon potency”. In data set [2], the “Suitability of quencher for assay of adenosine receptor A2B responses to NECA” value was “suitable”. For the same compound, the solubility in data set [3] was approximately 10 mg/mL (≈ 11.5 mM).

As to `CCCCC[C@H](O)/C=C/[C@H]1C(=O)C[C@H](O)[C@@H]1C/C=C\CCCC(=O)O` [PGD2, Prostaglandin D2], in data set [4] (MDC dye), the pEC50 was 10.74 and the “maximal response Fmax/Fb” value is on record as 4.4. In addition, in data set [4] (NY & H30602), the pEC50 was 11.11 and the “maximal response Fmax/Fb” value stood at 4.2.

For the compound `O=S1(=O)OC(c2cc(Cl)c(O)c(Br)c2)(c2cc(Cl)c(O)c(Br)c2)c2ccccc21` [Bromochlorophenol Blue], the “Solubility in Water” value in data set [3] was 20 mg/mL (≈ 34.4 mM).

With DIAZINE BLACK, in data set [1], the “Cell response to glucagon in the presence of the quencher dye” value is recorded as “abolished”.

For the compound `O.O=C1c2ccccc2C(=O)c2c1cc(S(=O)(=O)[O-])c(O)c2O.[Na+]` [Alizarin Red S monohydrate], the “Solubility in Water” value in data set [3] was 20 mg/mL.

Regarding `O=S(=O)([O-])c1cccc(N=Nc2ccc(N=Nc3ccc(Nc4ccccc4)c4c(S(=O)(=O)[O-])cccc34)c3ccccc23)c1.[Na+].[Na+]` [Acid Blue 113], the “Solubility in Water” value in data set [3] is 40 mg/mL.

With Sulfonazo II, the “Solubility in Water” value in data set [3] worked out at 40 mg/mL.

`O=S1(=O)OC(c2ccc(O)c(Cl)c2)(c2ccc(O)c(Cl)c2)c2ccccc21` [Chlorophenol Red]: the “Solubility in Water” value in data set [3] came out at 30 mg/mL (≈ 70.9 mM).
